Measured values taken from patent publication US11339148B2, “Crystalline forms of the CXCR7 receptor antagonist (3S,4S)-1-Cyclopropylmethyl-4-{[5-(2,4-difluoro-phenyl)-isoxazole-3-carbonyl]-amino}-piperidine-3-carboxylic acid (1-pyrimidin-2-yl-cyclopropyl)-amide” (IDORSIA PHARMACEUTICALS LTD., priority 2018, dated 2022).

Test: Gravimetric vapour sorption (GVS) / moisture sorption
Assay type: physicochemical
Conditions: at 95% RH; 25° C.
Protocol: Gravimetric Vapour Sorption (GVS) Analysis
Measurements are performed on a multi sample instrument SPS-100n (Projekt Messtechnik, Ulm, Germany) operated in stepping mode at 25° C.

O=C(N[C@H]1CCN(CC2CC2)C[C@@H]1C(=O)NC1(c2ncccn2)CC1)c1cc(-c2ccc(F)cc2F)on1 [Example 2, (3S,4S)-1-Cyclopropylmethyl-4-{[5-(2,4-difluoro-phenyl)-isoxazole-3-carbonyl]-amino}-piperidine-3-carboxylic acid (1-pyrimidin-2-yl-cyclopropyl)-amide in Crystalline Form 2]
Moisture sorption: Sorption of 6.9% at 95% RH
